# Source: patent publication US20240208970A1, “SUBSTITUTED HYDANTOIN COMPOUNDS, METHODS FOR PREPARATION THEREOF AND USE THEREOF IN THE TREATMENT AND/OR PREVENTION OF A CORONA VIRUS DISEASE” (priority 2021, published 2024)
# Experiments:
# [1] = molecular target: SARS-CoV-2 M^pro protease (Severe acute respiratory syndrome coronavirus 2 (2019-nCoV) (SARS-CoV-2), UniProt P0DTD1); experiment: biochemical; assay type: biochemical; settings: M^pro 75 nM, substrate 10 μM
# M^pro = M^pro (Severe acute respiratory syndrome coronavirus 2 (2019-nCoV) (SARS-CoV-2), UniProt P0DTD1); assay type: binding; settings: steady-state analysis, 25° C.
Structure (SMILES),IC50 ([1]; Tables 5B-5E) [nM],Kd (M^pro) [nM],IC50 ([1]; Table 5A) [nM]
"O=C1NC2(CC(c3ccccc3Cl)C2)C(=O)N1c1cncc2c(F)c(F)c(F)cc12 (single isomer, unassigned) [Compound 59, 2-(2-chlorophenyl)-7-(6,7,8-trifluoroisoquinolin-4-yl)-5,7-diazaspiro[3.4]octane-6,8-dione]",6600,250,–
"O=C1NC2(CC(c3ccccc3Cl)C2)C(=O)N1c1cncc2c(F)c(F)c(F)cc12 (single isomer, unassigned) [Compound 60, 2-(2-chlorophenyl)-7-(6,7,8-trifluoroisoquinolin-4-yl)-5,7-diazaspiro[3.4]octane-6,8-dione]",1370,364,–
"O=C1NC2(CC(C3CCC3)C2)C(=O)N1c1cncc(F)c1 (centres unmarked) [Compound 13, 2-cyclobutyl-7-(5-fluoropyridin-3-yl)-5,7-diazaspiro[3.4]octane-6,8-dione]",–,66000 ± 14000,6700
"O=C1NC2(CC(n3cccn3)C2)C(=O)N1c1cncc2ccccc12 (centres unmarked) [Compound 46, 7-(isoquinolin-4-yl)-2-(1H-pyrazol-1-yl)-5,7-diazaspiro[3.4]octane-6,8-dione]",–,930,–
"O=C1NC2(CC(c3ccccc3Cl)C2)C(=O)N1c1cncc2cccnc12 (centres unmarked) [Compound 50, 2-(2-chlorophenyl)-7-(1,6-naphthyridin-8-yl)-5,7-diazaspiro[3.4]octane-6,8-dione]",105,28,–
"O=C1NC2(CC(c3ccccc3Cl)C2)C(=O)N1c1cncc2cnccc12 (centres unmarked) [Compound 51, 2-(2-chlorophenyl)-7-(2,7-naphthyridin-4-yl)-5,7-diazaspiro[3.4]octane-6,8-dione]",141,29,–
"O=C1NC2(CC(c3ccccc3Cl)C2)C(=O)N1c1cncc2nccnc12 (centres unmarked) [Compound 52, 2-(2-chlorophenyl)-7-(pyrido[3,4-b]pyrazin-8-yl)-5,7-diazaspiro[3.4]octane-6,8-dione]",394,134,–
"O=C1NC2(CC(c3ccccc3Cl)C2)C(=O)N1c1cncc2cccc(F)c12 (centres unmarked) [Compound 53, 2-(2-chlorophenyl)-7-(5-fluoroisoquinolin-4-yl)-5,7-diazaspiro[3.4]octane-6,8-dione]",253,42,–
"O=C1NC2(CC(c3ccccc3Cl)C2)C(=O)N1c1cccnc1F (centres unmarked) [Compound 62, 2-(2-chlorophenyl)-7-(2-fluoropyridin-3-yl)-5,7-diazaspiro[3.4]octane-6,8-dione]",201,36,–
"CC(C)c1ccncc1N1C(=O)NC2(CC(c3ccccc3Cl)C2)C1=O (centres unmarked) [Compound 63, 2-(2-chlorophenyl)-7-(4-isopropylpyridin-3-yl)-5,7-diazaspiro[3.4]octane-6,8-dione]",–,89,–
"CN(C)c1cncc(N2C(=O)NC3(CC(c4ccccc4Cl)C3)C2=O)c1 (centres unmarked) [Compound 65, 2-(2-chlorophenyl)-7-(5-(dimethylamino)pyridin-3-yl)-5,7-diazaspiro[3.4]octane-6,8-dione]",–,790,–
"O=C1NC2(CC(c3ccccc3Cl)C2)C(=O)N1c1cncnc1 (centres unmarked) [Compound 66, 2-(2-chlorophenyl)-7-(pyrimidin-5-yl)-5,7-diazaspiro[3.4]octane-6,8-dione]",–,691,–
"CC1(c2ccccc2Cl)CC2(C1)NC(=O)N(c1cncc3ccccc13)C2=O (centres unmarked) [Compound 95, 2-(2-chlorophenyl)-7-(isoquinolin-4-yl)-2-methyl-5,7-diazaspiro[3.4]octane-6,8-dione]",69,–,–
"CC1(c2ccccc2Cl)CC2(C1)NC(=O)N(c1cncc3ccccc13)C2=O (centres unmarked) [Compound 96, 2-(2-chlorophenyl)-7-(isoquinolin-4-yl)-2-methyl-5,7-diazaspiro[3.4]octane-6,8-dione]",408,–,–
"O=C1NC2(CC(c3ccccc3Cl)C2)C(=O)N1c1cncc2nc[nH]c12 (centres unmarked) [Compound 97, 2-(2-chlorophenyl)-7-(1H-imidazo[4,5-c]pyridin-7-yl)-5,7-diazaspiro[3.4]octane-6,8-dione]",287,–,–
"O=C1NC2(CC(c3ccccc3Cl)C2)C(=O)N1c1cncc2[nH]c(=O)[nH]c12 (centres unmarked) [Compound 98, 2-(2-chlorophenyl)-7-(2-oxo-2,3-dihydro-1H-imidazo[4,5-c]pyridin-7-yl)-5,7-diazaspiro[3.4]octane-6,8-dione]",1380,–,–
"O=C1NC2(CC(c3ccccc3Cl)C2)C(=O)N1c1cncc2nccn12 (centres unmarked) [Compound 99, 2-(2-chlorophenyl)-7-(imidazo[1,2-a]pyrazin-5-yl)-5,7-diazaspiro[3.4]octane-6,8-dione]",780,–,–
"O=C1NC2(CC(c3ccccc3Cl)C2)C(=O)N1c1cccnc1 (centres unmarked) [Compound 100, 2-(2-chlorophenyl)-7-(pyridin-3-yl)-5,7-diazaspiro[3.4]octane-6,8-dione]",295,–,–
